Data as given in publication PMC4133811 (BMB Reports, 2012).

Experiments:
Test in all cases: NADH oxidation at […] nm, reductive amination of 2-oxoglutarate
Format in all cases: biochemical
[1] = target: hGDH2 (human glutamate dehydrogenase isozyme 2) (Homo sapiens, UniProt P49448, C146A)
[2] = target: hGDH2 (human glutamate dehydrogenase isozyme 2) (Homo sapiens, UniProt P49448, C327A)
[3] = target: hGDH2 (human glutamate dehydrogenase isozyme 2) (Homo sapiens, UniProt P49448, C112A)
[4] = target: hGDH2 (human glutamate dehydrogenase isozyme 2) (Homo sapiens, UniProt P49448)
Sequence of hGDH2 (human glutamate dehydrogenase isozyme 2) (Homo sapiens, UniProt P49448) (P49448 54-558): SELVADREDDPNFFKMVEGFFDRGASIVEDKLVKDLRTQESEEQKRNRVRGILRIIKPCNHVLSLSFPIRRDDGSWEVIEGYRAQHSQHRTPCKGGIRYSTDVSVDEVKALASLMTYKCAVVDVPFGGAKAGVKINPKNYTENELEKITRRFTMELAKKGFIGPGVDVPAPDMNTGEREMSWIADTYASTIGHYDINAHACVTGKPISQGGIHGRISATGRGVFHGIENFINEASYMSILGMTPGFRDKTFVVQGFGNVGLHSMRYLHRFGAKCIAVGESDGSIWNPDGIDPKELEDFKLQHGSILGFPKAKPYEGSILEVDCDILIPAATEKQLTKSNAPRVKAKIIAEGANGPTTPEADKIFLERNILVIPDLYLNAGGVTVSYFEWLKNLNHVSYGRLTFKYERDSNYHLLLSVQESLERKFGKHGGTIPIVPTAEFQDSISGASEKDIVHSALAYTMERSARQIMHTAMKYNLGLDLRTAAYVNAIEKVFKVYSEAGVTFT

[5] = target: hGDH2 (human glutamate dehydrogenase isozyme 2) (Homo sapiens, UniProt P49448, C254A)
Sequence of hGDH2 (human glutamate dehydrogenase isozyme 2) (Homo sapiens, UniProt P49448, C254A) (P49448 54-558 C254A): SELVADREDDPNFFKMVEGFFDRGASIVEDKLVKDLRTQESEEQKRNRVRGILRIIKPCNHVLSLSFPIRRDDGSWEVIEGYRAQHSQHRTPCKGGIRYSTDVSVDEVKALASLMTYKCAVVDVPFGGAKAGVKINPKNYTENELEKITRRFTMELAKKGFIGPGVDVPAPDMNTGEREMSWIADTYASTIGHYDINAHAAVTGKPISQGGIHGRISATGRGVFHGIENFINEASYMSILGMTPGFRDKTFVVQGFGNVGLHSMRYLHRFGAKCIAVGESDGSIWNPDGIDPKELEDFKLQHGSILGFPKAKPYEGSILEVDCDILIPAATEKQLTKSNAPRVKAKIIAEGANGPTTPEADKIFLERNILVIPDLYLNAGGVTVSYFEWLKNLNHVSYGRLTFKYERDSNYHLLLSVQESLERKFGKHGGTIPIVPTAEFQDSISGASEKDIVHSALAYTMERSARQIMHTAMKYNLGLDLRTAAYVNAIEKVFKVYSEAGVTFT

[6] = target: hGDH2 (human glutamate dehydrogenase isozyme 2) (Homo sapiens, UniProt P49448, C172A)
Sequence of hGDH2 (human glutamate dehydrogenase isozyme 2) (Homo sapiens, UniProt P49448, C172A) (P49448 54-558 C172A): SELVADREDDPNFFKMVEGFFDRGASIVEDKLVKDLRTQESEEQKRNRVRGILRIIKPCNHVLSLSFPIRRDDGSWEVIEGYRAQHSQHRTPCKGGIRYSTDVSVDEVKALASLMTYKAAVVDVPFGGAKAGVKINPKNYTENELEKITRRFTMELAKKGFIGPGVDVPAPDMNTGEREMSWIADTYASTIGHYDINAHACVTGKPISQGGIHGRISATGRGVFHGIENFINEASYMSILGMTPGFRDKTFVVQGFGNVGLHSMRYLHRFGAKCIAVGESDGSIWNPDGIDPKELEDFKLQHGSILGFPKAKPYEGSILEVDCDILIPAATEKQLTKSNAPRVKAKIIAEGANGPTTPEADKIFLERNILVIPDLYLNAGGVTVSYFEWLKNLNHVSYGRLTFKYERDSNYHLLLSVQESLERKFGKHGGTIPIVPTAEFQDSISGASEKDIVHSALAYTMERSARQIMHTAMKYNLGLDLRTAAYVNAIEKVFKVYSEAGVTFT

Sequence of hGDH2 (human glutamate dehydrogenase isozyme 2) (Homo sapiens, UniProt P49448, C146A) (P49448 54-558 C146A): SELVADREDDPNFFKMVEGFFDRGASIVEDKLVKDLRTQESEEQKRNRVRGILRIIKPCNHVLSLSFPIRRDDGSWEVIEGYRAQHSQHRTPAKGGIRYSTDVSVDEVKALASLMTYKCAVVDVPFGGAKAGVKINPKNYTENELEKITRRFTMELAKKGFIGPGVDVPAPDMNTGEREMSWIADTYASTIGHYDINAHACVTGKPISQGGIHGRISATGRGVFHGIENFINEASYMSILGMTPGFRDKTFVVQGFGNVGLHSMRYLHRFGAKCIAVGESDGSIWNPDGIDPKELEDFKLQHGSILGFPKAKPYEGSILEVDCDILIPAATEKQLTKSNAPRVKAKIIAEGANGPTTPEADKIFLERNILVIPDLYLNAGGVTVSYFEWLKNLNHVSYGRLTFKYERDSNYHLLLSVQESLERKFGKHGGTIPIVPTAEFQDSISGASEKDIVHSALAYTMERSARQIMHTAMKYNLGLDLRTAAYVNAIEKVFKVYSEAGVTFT
Sequence of hGDH2 (human glutamate dehydrogenase isozyme 2) (Homo sapiens, UniProt P49448, C112A) (P49448 54-558 C112A): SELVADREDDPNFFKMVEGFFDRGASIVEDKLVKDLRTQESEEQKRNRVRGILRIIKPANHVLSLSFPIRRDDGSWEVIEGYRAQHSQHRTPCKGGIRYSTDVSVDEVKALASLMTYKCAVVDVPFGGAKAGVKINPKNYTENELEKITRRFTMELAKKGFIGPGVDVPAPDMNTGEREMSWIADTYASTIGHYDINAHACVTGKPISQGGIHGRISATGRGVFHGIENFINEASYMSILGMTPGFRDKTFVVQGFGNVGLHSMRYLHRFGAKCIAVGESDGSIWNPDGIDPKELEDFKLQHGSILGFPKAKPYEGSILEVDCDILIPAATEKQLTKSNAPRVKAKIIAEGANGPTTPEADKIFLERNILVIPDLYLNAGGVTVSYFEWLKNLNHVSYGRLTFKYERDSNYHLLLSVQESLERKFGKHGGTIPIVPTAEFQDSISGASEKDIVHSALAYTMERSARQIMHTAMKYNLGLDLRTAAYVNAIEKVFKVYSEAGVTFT
Sequence of hGDH2 (human glutamate dehydrogenase isozyme 2) (Homo sapiens, UniProt P49448, C327A) (P49448 54-558 C327A): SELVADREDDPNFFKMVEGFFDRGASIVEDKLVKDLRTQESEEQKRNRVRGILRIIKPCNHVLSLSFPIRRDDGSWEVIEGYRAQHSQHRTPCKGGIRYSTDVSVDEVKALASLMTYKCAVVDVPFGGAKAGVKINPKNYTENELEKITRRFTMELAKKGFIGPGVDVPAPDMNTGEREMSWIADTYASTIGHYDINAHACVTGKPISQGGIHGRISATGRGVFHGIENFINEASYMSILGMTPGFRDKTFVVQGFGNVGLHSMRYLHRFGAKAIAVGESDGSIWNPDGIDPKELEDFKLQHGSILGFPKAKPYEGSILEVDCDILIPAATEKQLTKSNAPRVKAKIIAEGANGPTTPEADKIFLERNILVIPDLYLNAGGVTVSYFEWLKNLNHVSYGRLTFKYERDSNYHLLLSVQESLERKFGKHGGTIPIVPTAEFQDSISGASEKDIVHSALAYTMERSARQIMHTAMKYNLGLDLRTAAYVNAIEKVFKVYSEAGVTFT

CCCCCCCCCCCCCCCC(=O)SCCNC(=O)CCNC(=O)[C@H](O)C(C)(C)COP(=O)(O)OP(=O)(O)OC[C@H]1O[C@@H](n2cnc3c(N)ncnc32)[C@H](O)[C@@H]1OP(=O)(O)O [palmitoyl-CoA]
IC50 [1]: 2.6 µM | IC50 [2]: 2.31 µM | IC50 [3]: 2.15 µM | IC50 [4]: 1.82 µM | IC50 [5]: 2.47 µM | IC50 [6]: 1.98 µM
